The numbers were not newly measured in patent publication US20070142447A1, “Veterinary composition comprising an arylpyrazole and a nitroenamine with enhanced antiparasitic activity” (Intervet International B.V., priority 2004, published 2007), which cites them from elsewhere.

The conditions of series [1]: cats.
Series [2] deals with fleas. The following applies: after 72 hours.
For series [3] the following is noted: dogs.

Each structure is given as a SMILES string. Read-outs that look alike come from different tables or passages of the source.

`CCN(Cc1ccc(Cl)nc1)/C(=C/[N+](=O)[O-])NC` [nitenpyram, (E)-N-(6-chloro-pyridin-3-ylmethyl)-N-ethyl-N-methyl-2-methyl-2-nitrovinylidenediamine]: in series [1], the “half-life in the blood” value was 7.7 h and the mean residence time is 10.2 h. The “lethality of nitenpyram levels in host blood to fleas” value in series [2] is “not lethal to fleas”. Also, in series [3], the “half-life in the blood” value was 2.8 h and the mean residence time is 4.1 h.
